The NIST ThermoML archive (doi:10.1016/j.jct.2019.03.040)

Tests used:
[1] = molar heat capacity at constant pressure; conditions: 101.33 kPa, Small sample (50 mg) DSC
[2] = Liquid; for Critical pressure / Critical temperature: Resistive pulse heating; for thermal diffusivity: 101.33 kPa, Laser flash apparatus

CC(=O)CCC(=O)O [4-oxopentanoic acid]
[1], Metastable liquid
Conditions | molar heat capacity at constant pressure [J/K/mol]
302.62 K | 245.93
303.12 K | 246.16
303.62 K | 246.05
304.12 K | 246.28
304.62 K | 246.16
305.12 K | 246.51
305.62 K | 246.4
306.12 K | 246.86
306.62 K | 246.86
307.12 K | 246.86
307.62 K | 246.86
308.12 K | 246.98
308.62 K | 247.44
309.12 K | 247.09
309.62 K | 247.33
310.12 K | 247.44
310.62 K | 248.02
311.12 K | 247.91
311.62 K | 247.91
312.12 K | 247.91
312.62 K | 247.91
313.12 K | 247.56
313.62 K | 247.91
314.12 K | 248.25
314.62 K | 248.37
315.12 K | 248.49
315.62 K | 248.83
316.12 K | 248.95
316.62 K | 249.53
317.12 K | 249.65
317.62 K | 249.76
318.12 K | 250.46
318.62 K | 250.23
319.12 K | 250
319.62 K | 250.34
320.12 K | 250.11
320.62 K | 250.46
321.12 K | 250.34
321.62 K | 250.46
322.12 K | 250.58
322.62 K | 250.46
323.12 K | 251.16
323.62 K | 251.04
324.12 K | 251.27
324.62 K | 251.51
325.12 K | 251.27
325.62 K | 251.39
326.12 K | 251.74
326.62 K | 252.2
327.12 K | 251.85
327.62 K | 251.85
328.12 K | 251.85
328.62 K | 252.09
329.12 K | 252.32
329.62 K | 251.85
330.12 K | 252.55
330.62 K | 252.55
331.12 K | 252.67
331.62 K | 253.25
332.12 K | 253.6
332.62 K | 253.83
333.12 K | 254.06
333.62 K | 254.29
334.12 K | 254.06
334.62 K | 254.18
335.12 K | 254.41
335.62 K | 254.41
336.12 K | 254.87
336.62 K | 254.64
337.12 K | 255.11
337.62 K | 255.45
338.12 K | 255.22
338.62 K | 255.22
339.12 K | 255.57
339.62 K | 255.8
340.12 K | 256.03
340.62 K | 256.5
341.12 K | 256.73
341.62 K | 257.08
342.12 K | 257.43
342.62 K | 257.54
343.12 K | 257.66
343.62 K | 257.89
344.12 K | 257.89
344.62 K | 257.31
345.12 K | 257.43
345.62 K | 257.54
346.12 K | 257.89
346.62 K | 258.24
347.12 K | 258.59
347.62 K | 258.7
348.12 K | 258.59
348.62 K | 258.82
349.12 K | 258.94
349.62 K | 258.82
350.12 K | 258.94
350.62 K | 259.17
351.12 K | 259.17
351.62 K | 259.29
352.12 K | 260.21
352.62 K | 260.1
353.12 K | 259.87
353.62 K | 260.33
354.12 K | 260.45
354.62 K | 259.75
355.12 K | 260.21
355.62 K | 260.45
356.12 K | 260.79
356.62 K | 260.79
357.12 K | 260.56
357.62 K | 260.79
358.12 K | 260.45
358.62 K | 260.56
359.12 K | 261.03
359.62 K | 260.68
360.12 K | 260.79
360.62 K | 261.03
361.12 K | 261.38
361.62 K | 261.61
362.12 K | 261.96
362.62 K | 262.07
363.12 K | 262.07
363.62 K | 262.07
364.12 K | 262.88
364.62 K | 262.77
365.12 K | 263.12
365.62 K | 263.7
366.12 K | 264.39
366.62 K | 264.39
367.12 K | 263.93
367.62 K | 263.47
368.12 K | 263.12
368.62 K | 263.12
369.12 K | 263.47
369.62 K | 263.47
370.12 K | 263.7
370.62 K | 263.7
371.12 K | 263.93
371.62 K | 264.05
372.12 K | 264.28
372.62 K | 264.05
373.12 K | 264.28
373.62 K | 264.28
374.12 K | 264.51

[2]
Conditions | Critical pressure [kPa] | Critical temperature [K]
– | 5310 | 766

CCCCOC(=O)CCC(C)=O [butyl levulinate]
[1], Liquid
Conditions | molar heat capacity at constant pressure [J/K/mol]
302.66 K | 336.87
303.16 K | 337.38
303.66 K | 338.59
304.16 K | 338.42
304.66 K | 337.73
305.16 K | 337.38
305.66 K | 337.73
306.16 K | 337.55
306.66 K | 338.42
307.16 K | 339.28
307.66 K | 338.76
308.16 K | 337.9
308.66 K | 338.24
309.16 K | 338.42
309.66 K | 339.1
310.16 K | 338.93
310.66 K | 340.14
311.16 K | 338.76
311.66 K | 338.59
312.16 K | 338.76
312.66 K | 338.76
313.16 K | 338.42
313.66 K | 338.76
314.16 K | 339.97
314.66 K | 339.79
315.16 K | 339.97
315.66 K | 339.62
316.16 K | 340.31
316.66 K | 340.14
317.16 K | 340.65
317.66 K | 340.65
318.16 K | 341.17
318.66 K | 341
319.16 K | 341.17
319.66 K | 341
320.16 K | 340.14
320.66 K | 341.69
321.16 K | 341.69
321.66 K | 341
322.16 K | 341
322.66 K | 341.69
323.16 K | 342.03
323.66 K | 342.38
324.16 K | 341.69
324.66 K | 342.89
325.16 K | 342.2
325.66 K | 341.52
326.16 K | 342.2
326.66 K | 343.24
327.16 K | 342.89
327.66 K | 343.07
328.16 K | 343.41
328.66 K | 341.34
329.16 K | 341.86
329.66 K | 342.38
330.16 K | 342.89
330.66 K | 342.89
331.16 K | 343.07
331.66 K | 342.38
332.16 K | 342.72
332.66 K | 343.58
333.16 K | 343.24
333.66 K | 344.27
334.16 K | 345.13
334.66 K | 344.44
335.16 K | 345.48
335.66 K | 344.79
336.16 K | 344.27
336.66 K | 345.65
337.16 K | 345.3
337.66 K | 345.3
338.16 K | 346.34
338.66 K | 346.51
339.16 K | 345.82
339.66 K | 346.34
340.16 K | 347.03
340.66 K | 346.17
341.16 K | 346.68
341.66 K | 346.17
342.16 K | 347.03
342.66 K | 346.68
343.16 K | 347.72
343.66 K | 347.37
344.16 K | 347.37
344.66 K | 347.54
345.16 K | 348.06
345.66 K | 348.23
346.16 K | 347.89
346.66 K | 348.58
347.16 K | 348.23
347.66 K | 349.09
348.16 K | 348.92
348.66 K | 349.27
349.16 K | 349.27
349.66 K | 349.78
350.16 K | 349.78
350.66 K | 350.13
351.16 K | 349.95
351.66 K | 349.61
352.16 K | 350.13
352.66 K | 348.58
353.16 K | 348.23
353.66 K | 348.58
354.16 K | 349.44
354.66 K | 349.95
355.16 K | 349.95
355.66 K | 350.64
356.16 K | 350.13
356.66 K | 350.13
357.16 K | 351.5
357.66 K | 350.99
358.16 K | 351.5
358.66 K | 351.68
359.16 K | 351.85
359.66 K | 351.85
360.16 K | 352.02
360.66 K | 351.68
361.16 K | 352.37
361.66 K | 353.05
362.16 K | 352.71
362.66 K | 352.88
363.16 K | 352.02
363.66 K | 352.71
364.16 K | 353.23
364.66 K | 353.57
365.16 K | 353.05
365.66 K | 353.4
366.16 K | 353.4
366.66 K | 354.6
367.16 K | 353.57
367.66 K | 353.57
368.16 K | 354.09
368.66 K | 353.92
369.16 K | 353.57
369.66 K | 353.4
370.16 K | 354.95
370.66 K | 354.78
371.16 K | 354.09
371.66 K | 354.78
372.16 K | 355.29
372.66 K | 355.81
373.16 K | 354.78
373.66 K | 355.81
374.16 K | 355.98

[2]
Conditions | thermal diffusivity [m2/s]
303.15 K | 7.77e-08
313.15 K | 7.68e-08
323.15 K | 7.57e-08
333.15 K | 7.48e-08
343.15 K | 7.37e-08
353.15 K | 7.26e-08
363.15 K | 7.15e-08
373.15 K | 7.06e-08

[2]
Conditions | Critical pressure [kPa] | Critical temperature [K]
– | 2410 | 692
